Measured values as given in patent publication US6544989B2, “Benzazoles: benzoxazole, benzthiazole and benzimidazole derivatives” (Syngenta Limited, priority 1998, dated 2003).
Several values for one entry are separate records, joined by “and”; a condition that tells them apart may be missing. Equal values may be shown once. Read-outs that look alike come from different tables or passages of the source. Marks after values point to notes of the source that are not given here.

Columns and labels:
Plasmopara viticola [1] = assay: Synergy test of two-compound mixtures, Plasmopara viticola (PLASVI) on vines, observed and expected PRCO; type: in vivo; settings: Disease on untreated: 95%
Rhizoctonia solani [2] = assay: Synergy test of two-compound mixtures, Rhizoctonia solani (RHIZSO) on turf, observed and expected PRCO; type: in vivo; settings: assessed 5 days after treatment
Plasmopara viticola [3] = assay: Fungicidal test, Plasmopara viticola (PLASVI) on vines, PRCO; type: in vivo
Uncinula necator = assay: Fungicidal test, Uncinula necator (UNCINE) on vines, PRCO; type: in vivo; settings: METHOD 2 (unbanded)
[4] = system: Phytophthora infestans lycopersici; type: in vivo
Botrytis cinerea = assay: Fungicidal test, Botrytis cinerea (BOTRCI) on tomatoes, PRCO; type: in vivo; settings: METHOD 2 (unbanded)
Venturia inaequalis = assay: Fungicidal test, Venturia inaequalis (VENTIN) on apples, PRCO; type: in vivo; settings: METHOD 2 (unbanded)
[5] = system: Erysiphe graminis f.sp. tritici; assay: Fungicidal test, Erysiphe graminis f.sp. tritici (ERYSGT) on wheat, PRCO; type: in vivo; settings: for ERYSGT 6 hr Prot/Foir PRCO: METHOD 1 (values marked *); for ERYSGT 1 d Prot/Foir PRCO: METHOD 2 (unbanded)
Septoria nodorum [6] = assay: Fungicidal test, Septoria nodorum (LEPTNO) on wheat, PRCO; type: in vivo; settings: METHOD 2 (unbanded)
Puccinia recondita = assay: Fungicidal test, Puccinia recondita (PUCCRT) on wheat, PRCO; type: in vivo
Pyricularia oryzae = type: in vivo; settings: METHOD 2 (unbanded)
Rhizoctonia solani [7] = assay: Fungicidal test, Rhizoctonia solani (RHIZSO) on rice, PRCO; type: in vivo; settings: METHOD 2 (unbanded)
Septoria nodorum [8] = assay: Synergy test of two-compound mixtures, Septoria nodorum (LEPTNO) on wheat, observed and expected PRCO; type: in vivo
Musca domestica = settings: 500 ppm by weight; knockdown assessed 15 minutes after treatment
Meloidogyne incognita = assay: Nematode test, J2 infective juveniles of Meloidogyne incognita, mortality; settings: 12.5 ppm; J2 infective juveniles suspended in solution; mortality after three days
Method: The activities of individual compounds of formula (I) were determined using a variety of pests. With the exception of nematodes, the pests were treated with a liquid composition containing 500 parts per million (ppm) by weight of a compound unless otherwise stated. Each composition was made by dissolving the compound in an acetone and ethanol (50:50 by volume) mixture and diluting the solution with water containing 0.05% by volume of a wetting agent, SYNPERONIC NP8, until the liquid composition contained the required concentration of the compound.
The test procedure for nematodes involved dissolving the compound in an acetone and ethanol (50:50 by volume) mixture and diluting the solution with water to obtain a final concentration of the compound of 12.5 ppm. J2 infective juveniles of Meloidogyne incognita were suspended in the solution in a glass vial and mortality assessed after a period of three days.

| SMILES | PLASVI 1 d Prot/Foir PRCO (Plasmopara viticola [3]; METHOD 2 (unbanded)) | UNCINE 1 d Prot/Foir PRCO (Uncinula necator) | PHYTIN 1 d Prot/Foir PRCO ([4]; METHOD 1 (values marked *)) | BOTRCI 1 d Prot/Foir PRCO (Botrytis cinerea) | VENTIN 1 d Prot/Foir PRCO (Venturia inaequalis) | ERYSGT 6 hr Prot/Foir PRCO [5] | LEPTNO 1 d Prot/Foir PRCO (Septoria nodorum [6]) | PUCCRT 1 d Prot/Foir PRCO (Puccinia recondita; METHOD 2 (unbanded)) | PYRIOR 1 d Prot/Foir PRCO (Pyricularia oryzae) | RHIZSO 1 d Prot/Foir PRCO (Rhizoctonia solani [7]) | MUSCDO AC = Musca domestica (knockdown), score (Musca domestica) | MELGIN = Meloidogyne incognita, grading of mortality (score) (Meloidogyne incognita) | PHYTIN 1 d Prot/Foir PRCO ([4]; METHOD 2 (unbanded)) | further results |
| --- | --- | --- | --- | --- | --- | --- | --- | --- | --- | --- | --- | --- | --- | --- |
| O=[N+]([O-])c1cc(C(F)(F)F)c(Cl)c([N+](=O)[O-])c1Nc1ncc(C(F)(F)F)cc1Cl [fluazinam] |  |  |  |  |  |  |  |  |  |  |  |  |  | % disease control Observed (Plasmopara viticola [1]; fluazinam 1 mg/l alone): 4%; % disease control Observed (Rhizoctonia solani [2]; Test 1, fluazinam 3 mg/l alone): 15%; % disease control Observed (Rhizoctonia solani [2]; Test 1, fluazinam 10 mg/l alone): 48.75%; % disease control Observed (Rhizoctonia solani [2]; Test 2, fluazinam 10 mg/l alone): 18.4% |
| CSC1=N[C@@](C)(c2ccccc2)C(=O)N1Nc1ccccc1 [fenamidone] |  |  |  |  |  |  |  |  |  |  |  |  |  | % disease control Observed (Plasmopara viticola [1]; fenamidone 0.2 mg/l alone): 65% |
| Cc1nsc(NC(=O)Cc2ccc3oc(CC(C)(C)C)nc3c2)c1Cl [Compound 15(A3)] | 100 | 100 | 100* | 73 | 100 | 100* | 71 | 100 | 100 | 5 | 9 (9 indicates 80-100% mortality) | 0 (0 indicates less than 40% mortality) |  | % disease control Observed (Plasmopara viticola [1]; Compound 15(A3) 0.2 mg/l alone): 45%; % disease control Observed (Septoria nodorum [8]; Test 1 (Disease on untreated: 52%), Compound 15(A3) 50 mg/l alone): 16%; % disease control Observed (Septoria nodorum [8]; Test 1 (Disease on untreated: 52%), Compound 15(A3) 100 mg/l alone): 27%; % disease control Observed (Septoria nodorum [8]; Test 2 (Disease on untreated: 64%), Compound 15(A3) 50 mg/l alone): 21%; % disease control Observed (Septoria nodorum [8]; Test 2 (Disease on untreated: 64%), Compound 15(A3) 100 mg/l alone): 21%; % disease control Observed (Rhizoctonia solani [2]; Test 1, Disease on untreated 100%, Compound 15(A3) 300 mg/l alone): 2.5%; % disease control Observed (Rhizoctonia solani [2]; Test 2, Disease on untreated 100%, Compound 15(A3) 300 mg/l alone): 6.1% |
| Cc1nsc(NC(=O)Cc2ccc3oc(C(C)(C)C)nc3c2)c1Cl [9(A3)] |  | 100 |  | 3 | 33 | 100* | 55 | 100 | 100 | 29 | 9 (9 indicates 80-100% mortality) | 0 (0 indicates less than 40% mortality) | 100 | PLASVI 1 d Prot/Foir PRCO (Plasmopara viticola [3]; METHOD 1 (values marked *)): 100* |
| CO/C=C(/C(=O)OC)c1ccccc1Oc1cc(Oc2ccccc2C#N)ncn1 [azoxystrobin, reference compound] |  |  |  |  |  |  |  |  |  |  |  |  |  | % disease control Observed (Plasmopara viticola [1]; azoxystrobin 0.2 mg/l alone): 61%; % disease control Observed (Septoria nodorum [8]; Test 1 (Disease on untreated: 52%), azoxystrobin 0.1 mg/l alone): 41%; % disease control Observed (Septoria nodorum [8]; Test 1 (Disease on untreated: 52%), azoxystrobin 0.25 mg/l alone): 37%; % disease control Observed (Septoria nodorum [8]; Test 2 (Disease on untreated: 64%), azoxystrobin 0.1 mg/l alone): 48%; % disease control Observed (Septoria nodorum [8]; Test 2 (Disease on untreated: 64%), azoxystrobin 0.25 mg/l alone): 71%; % disease control Observed (Rhizoctonia solani [2]; Test 1, azoxystrobin 0.1 mg/l alone): 38.25%; % disease control Observed (Rhizoctonia solani [2]; Test 1, azoxystrobin 0.3 mg/l alone): 71.25%; % disease control Observed (Rhizoctonia solani [2]; Test 2, azoxystrobin 0.1 mg/l alone): 19.7% |
| Cc1nsc(NC(=O)Cc2ccc3oc(CC(C)C)nc3c2)c1Cl [14(A3)] | 89 | 98 |  |  | 10 |  | 28 | 97 | 90 | 12 | 9 (9 indicates 80-100% mortality) | 0 (0 indicates less than 40% mortality) | 100 | ERYSGT 1 d Prot/Foir PRCO [5]: 90 |
| Cc1nc2cc(CC(=O)Nc3snc(C)c3Cl)ccc2o1 [2(A3)] |  |  | 100* | 0 | 97 | 100* | 21 |  | 47 and 92 |  | 0 (0 indicates less than 40% mortality) | 5 (5 indicates 40-79% mortality) |  | PLASVI 1 d Prot/Foir PRCO (Plasmopara viticola [3]; METHOD 1 (values marked *)): 0*; PUCCRT 1 d Prot/Foir PRCO (Puccinia recondita; METHOD 1 (values marked *)): 100* |
| Cc1nsc(NC(=O)Cc2ccc3oc(SC(C)C)nc3c2)c1Cl [223(A3)] | 55 | 30 |  |  | 60 |  | 12 | 99 | 63 | 0 | 0 (0 indicates less than 40% mortality) | 0 (0 indicates less than 40% mortality) | 93 | ERYSGT 1 d Prot/Foir PRCO [5]: 73 |
| CCCc1nc2cc(CC(=O)Nc3snc(C)c3Cl)ccc2o1 [4(A3)] | 34 |  | 100* | 49 |  | 100* | 50 |  | 90 and 81 |  | 9 (9 indicates 80-100% mortality) | 9 (9 indicates 80-100% mortality) |  | PUCCRT 1 d Prot/Foir PRCO (Puccinia recondita; METHOD 1 (values marked *)): 100* |
